One assay has as its system G93A mouse. As to the kind of experiment: oxidative toxicity in G93A mouse (nitrotyrosine immunostaining). The class given is in vivo. The following applies: G93A mice at ages of 10 weeks. How it is done:
Reactive oxygen species (ROS) produced in progress of ALS disease was evaluated in G93A mouse.

The subject of assay [1] is Tg2576 transgenic mice. Briefly: Morris water maze in Tg2576 transgenic mice. Particulars: 25 mg/kg/day for 5 months (9~14 months). The class given is in vivo, mouse. How it is done: 14 month-old Tg2576 transgenic mice were fed chow alone, or containing 25 mg/kg/day of chemical 01, for 5 months (9˜14 months). After administration of 5 months, the cognitive function was analyzed by Morris water maze test. Training was performed 4 times a day (4 trials/day) for 5 days. If mouse stay on the platform for over 10 seconds, it is thought to be a success. After 5 days of experiments, the latency to find the platform was recorded and analyzed for each mouse (mean±SEM, n=2).
14 month-old Tg2576 transgenic mice were fed chow alone (saline only), or containing 25 mg/kg/day of chemical—01, for 5 months (9˜14 month).
The cognitive function was analyzed by Morris water maze test. Mice ware trained to perform a hidden platform task in the Morris water maze. The latency to find the platform was recorded for each mouse.

The subject of assay [2] is Tg2576 transgenic mice. As to the kind of experiment: amyloid plaque burden in Tg2576 transgenic mice (Thioflavin-S). Type of assay: in vivo, mouse. How it is done:
[…] 18˜20 um brain cryo-sections were stained with 1% Thioflavin-S for 5 minutes and observed under fluorescence microscope system. Amyloid plaque burden/brain was quantified with MetaVue Image software (mean±SEM, n=2).
[…] 18˜20 μm brain sections stained 1% Thioflavin-S for 5 min and observed under fluorescence microscope system.

A further assay relates to NO. Briefly: LPS-induced NO in mesencephalic cultures. The class given is cell-based. Particulars: 5 ng/ml LPS; 0-100 uM; 24 hours. How it is done:
Mesencephalic nerve cell cultures were pre-treated with 5 ng/ml of LPS for 30 minutes to make a cull culture model of Parkinson's disease, and then 0-100 uM of chemical 01 were added. The level of NO was evaluated 24 hours after administration of chemical 01, and the level of TNF-a was evaluated 3 hours after administration of chemical 01 (mean±SEM, n=7-12 culture well/each group).

This note sets out measurements from patent US20120301551A1, “COMPOUNDS AND COMPOSITIONS FOR TREATING NEURONAL DEATH OR NEUROLOGICAL DYSFUNCTION” (Neurotech Pharmaceuticals Co., Ltd., priority 2005, published 2012).

As to `O=C(O)c1cc(NCCc2ccc(C(F)(F)F)cc2)ccc1O` [chemical 01, 2-Hydroxy-5-[2-(4-trifluoromethyl-phenyl)-ethylamino]-benzoic acid], the “fluorescence intensity of nitrotyrosine (oxidative toxicity) in motor neurons” value in the assay with G93A mouse is given as “decreased”. The “escape latency (latency to find the platform)” value in the assay with Tg2576 transgenic mice [1] is listed as “shorter”. Besides, the “amyloid plaque burden, in words” value with Tg2576 transgenic mice [2] (25 mg/kg/d for 8 months (9~17 month)) is recorded as “reduced significantly”. Besides, the “reduction of amyloid plaque burden compared to control” value in the assay on Tg2576 transgenic mice [2] (25 mg/kg/day in chow for 8 months (9~17 months)) worked out at 39.2%. Also, the “reduction in plaque burden” value in the assay on Tg2576 transgenic mice [2] (100 mg/kg/day for 6 months (from 6 to 12 months)) came to 62%. Also, the “increase of NO caused by LPS” value in the assay on NO is recorded as “dose-dependent manner”.
